Reference: patent publication US8545886B2, “Extended release tablet formulations of flibanserin and method for manufacturing the same” (Boehringer Ingelheim International GmbH, priority 2006, dated 2013)
Converted amounts (≈) assume the structure as drawn.

Assay: Solubility of flibanserin in aqueous media
Assay type: physicochemical
Excerpt: In acidic environment compounds such as flibanserin are usually very well water soluble whereas in neutral or basic environment these drugs can be practically insoluble. […] These physicochemical properties of basic compounds make it difficult to develop extended release dosage forms. There is a natural pH gradient from the acidity of the stomach where the pH of physiological fluids are typically around 1-2, through the weakly acidic duodenum to the virtually neutral environment of the small intestine where the pH is in the range of 5-8.

solubility (aqueous buffer, in 0.05 M phosphate buffer pH 6.8): 2 µg/mL (≈ 0.00512 mM) | solubility (simulated gastric fluid, in 0.1 N HCl): 6200 µg/mL (≈ 15.9 mM)
SMILES: O=c1[nH]c2ccccc2n1CCN1CCN(c2cccc(C(F)(F)F)c2)CC1 [flibanserin, 1,3-dihydro-1-[2-[4-[3-(trifluoromethyl)phenyl]-1-piperazinyl]ethyl]-2H-benzimidazole-2-one]
